Source: US20150259344A1, “IMIDAZOLE DERIVATIVE” (DAINIPPON SUMITOMO PHARMA CO., LTD., priority 2012, published 2015)

target: T1, human α7 nAChR (Homo sapiens, UniProt P36544); assay: Evaluation of PAM activity with human α7 nACh receptor stably expressing cells (aequorin luminescence, FDSS7000); type: cell-based; settings: 1 μM test compound (values marked *, footnote of Table 25); ACh at EC20; ratio of RLU (Max-Min) to control wells; read-out: α7PAM (%) @1 μM
T1 construct: expressed in transfected cells
T1 sequence (P36544 23-502): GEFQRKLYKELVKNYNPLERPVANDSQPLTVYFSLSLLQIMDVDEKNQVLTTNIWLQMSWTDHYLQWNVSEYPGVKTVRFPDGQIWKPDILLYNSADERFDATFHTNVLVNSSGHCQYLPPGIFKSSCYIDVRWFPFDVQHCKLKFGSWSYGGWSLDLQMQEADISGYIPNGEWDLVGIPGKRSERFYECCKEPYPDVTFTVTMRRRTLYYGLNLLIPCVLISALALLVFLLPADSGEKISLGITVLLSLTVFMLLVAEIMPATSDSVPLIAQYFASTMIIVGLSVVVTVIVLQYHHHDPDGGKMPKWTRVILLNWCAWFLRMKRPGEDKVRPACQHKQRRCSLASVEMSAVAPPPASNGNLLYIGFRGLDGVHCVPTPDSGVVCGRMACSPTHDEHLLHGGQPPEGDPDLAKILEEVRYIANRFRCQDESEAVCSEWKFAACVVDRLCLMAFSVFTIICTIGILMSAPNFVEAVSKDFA
Experimental: Evaluation of PAM activity with human α7 nACh receptor stably expressing cells
(1) Human α7 nAChR stably expressing cells
Human α7 nAChR stably expressing cells were generated and cultured.
Thus, the cells were subcultured.
Seven days after subculturing, the cells were treated with TrypLE Express to collect them when they were about 80% confluent.
On the next day after seeding, Viviren (cat#E649X, Promega, Madison, Wis., USA) was added to the medium so that the final concentration could be 4 μM (15 μL/well). The plates were centrifuged and then placed in the dark for 4 hours at room temperature.
(2) Preparation of the Test Samples
Each of the test compounds was dissolved in DMSO to prepare each test sample at a concentration of 1000-fold the final concentration. To the solution was added Hanks/20 mM HEPES/0.2% BSA (cat#A3803, Sigma, St. Louis, Mo., USA), and the concentration was adjusted to 6-fold the final concentration.
(3) Evaluation of PAM Activity
FDSS7000 (Hamamatsu Photonics) was used to detect the luminescence signal evoked by α7 nAChR stimulation. The cells and a luminescent substrate were put on a plate, and the test sample was added thereto. […] The ratio of the RLU (Max-Min) of the test-compound-containing wells to that of the control wells was defined as PAM activity.

Row | Structure (SMILES) | activity at 1 µM [%]
1 | N#Cc1c(-c2cc(F)ccc2F)ncn1[C@H]1C[C@H]2CC[C@@H](C1)N2C(=O)NC1CCC(F)(F)CC1 [Example 403] | 590
2 | O=C(C1CCC(F)(F)CC1)N1[C@@H]2CC[C@H]1C[C@@H](n1cnc(-c3cccc(F)c3F)c1)C2 [Example 429] | 111
3 | O=C(NC1CCCCC1)N1[C@@H]2CC[C@H]1C[C@@H](n1cnc(-c3cc(F)ccc3F)c1)C2 [Example 389] | 163
4 | CC(C)(F)C(=O)N[C@H]1CC[C@@H](n2cnc(-c3cc(OC(F)(F)F)ccc3F)c2Cl)CC1 [Example 328] | 859
5 | COc1cc(-c2ncn([C@H]3CC[C@@H](NC(=O)C4CCC4)CC3)c2Cl)c(Cl)cc1F [Example 192] | 274
6 | O=C(NC1CCC(F)(F)CC1)N1[C@@H]2CC[C@H]1C[C@@H](n1cnc(-c3cc(F)ccc3F)c1)C2 [Example 388] | 335
7 | O=C(N[C@H]1CC[C@@H](n2cnc(-c3cccc(F)c3)c2Cl)CC1)C1CCCC1 [Example 177] | 389
8 | CC(C)(F)C(=O)N[C@H]1CC[C@@H](n2cnc(-c3ccc(F)c(OC(F)(F)F)c3)c2)CC1 [Example 295] | 444

same assay, conditions: 10 μM test compound; ACh at EC20; ratio of RLU (Max-Min) to control wells; read-out: α7PAM (%) @10 μM

Row | Structure (SMILES) | activity at 10 µM [%]
9 | O=C(C1CCC(F)(F)CC1)N1[C@@H]2CC[C@H]1C[C@@H](n1cnc(-c3ccc(F)cc3F)c1)C2 [Example 426] | 308
10 | O=C(N[C@H]1CC[C@@H](n2cnc(-c3ccccc3)c2Cl)CC1)C1CCC(F)(F)CC1 [Example 169] | 454
11 | O=C(NC1CCCCC1)N1CCC(n2cnc(-c3ccccn3)c2)CC1 [Example 132] | 151
12 | CC(C)(C)NC(=O)N1CCC(n2cnc(-c3ccccc3F)c2Cl)CC1 [Example 92] | 758
13 | O=C(NC1CCCCC1)N1CCC(n2cnc(-c3ccccc3)c2C2CC2)CC1 [Example 108] | 576
14 | O=C(NC1CCC(F)(F)CC1)N1CCC(n2cnc(-c3cc(F)cc(F)c3)c2)CC1 [Example 35] | 878
15 | N#Cc1c(-c2ccccc2F)ncn1C1CCN(C(=O)C2CCC(F)(F)CC2)CC1 [Example 156, 1-{1-[(4,4-difluorocyclohexyl)carbonyl]piperidin-4-yl}-4-(2-fluorophenyl)-1H-imidazole-5-carbonitrile] | 522
16 | CCc1c(-c2ccccc2)ncn1C1CCN(C(=O)NC2CCCCC2)CC1 [Example 103] | 452
17 | O=C(NC1CCCCC1)N1[C@@H]2CC[C@H]1C[C@@H](n1cnc(-c3ccc(F)cc3)c1Cl)C2 [Example 390] | 683
18 | O=C(NC1CC2CCC1C2)N1CCC(n2cnc(-c3cccc(OC(F)F)c3)c2)CC1 (centres unmarked) [Example 56] | 169
19 | O=C(NC1CCCCC1)N1CCC(n2cnc(-c3cccc(F)c3)c2Cl)CC1 [Example 84] | 747
20 | O=C(NC1CCC(F)(F)CC1)N1[C@@H]2CC[C@H]1C[C@H](n1cnc(-c3ccc(F)cc3F)c1Cl)C2 [Example 415] | 997
21 | N#Cc1c(-c2ccc(F)cc2F)ncn1[C@@H]1C[C@H]2CC[C@@H](C1)N2C(=O)C1CCC(F)(F)CC1 [Example 462] | 384
22 | O=C(C1CCC(F)(F)CC1)N1CCC(n2cnc(-c3ccc(F)cc3)c2Cl)CC1 [Example 149] | 862
23 | O=C(C1CCOCC1)N1CCC(n2cnc(-c3cccc(F)c3)c2Cl)CC1 [Example 150] | 137
24 | COC1CCC(NC(=O)N2CCC(n3cnc(-c4cccs4)c3)CC2)CC1 (centres unmarked) [Example 127] | 170

Row | Structure (SMILES) | activity at 10 µM [%]
25 | COc1ccc(-c2ncn([C@H]3CC[C@@H](NC(=O)C4CCC4)CC3)c2Cl)cc1Cl [Example 179] | 269
26 | COc1ccc(-c2ncn(C3CCN(C(=O)NC4CCCC4)CC3)c2Cl)cc1 [Example 74] | 779
27 | O=C(NC1CCCCC1)N1CCC(n2cc(-c3ccccc3)nc2Cl)CC1 [Example 116] | 131
28 | O=C(NC1CCCCC1)N1CCCC(n2cnc(-c3ccc(F)cc3)c2)CC1 (centres unmarked) [Example 240] | 280
29 | O=C(NC1CCCCC1)N1[C@@H]2CC[C@H]1C[C@@H](n1cnc(-c3ccccc3)c1)C2 [Example 383] | 598
30 | O=C(N[C@H]1CC[C@@H](n2cnc(-c3ccccc3)c2Cl)CC1)C1CCCCC1 [Example 168] | 829
31 | O=C(NC1CCCC1)N1CCC(n2cnc(-c3cccc(F)c3)c2)CC1 [Example 30] | 319
32 | N#Cc1c(-c2cccc(F)c2F)ncn1[C@H]1C[C@H]2CC[C@@H](C1)N2C(=O)NC1CCC(F)(F)CC1 [Example 404] | 292
33 | O=C(NC1CCCC1)N1CCC(n2cnc(-c3cccs3)c2)CC1 [Example 121] | 201
34 | O=C(NC1CCCCC1)N1[C@@H]2CC[C@H]1C[C@@H](n1cnc(-c3ccc(F)cc3)c1)C2 [Example 382] | 222
35 | O=C(NC1CCOCC1)[C@H]1CC[C@@H](n2cnc(-c3cc(F)ccc3F)c2Cl)CC1 [Example 368] | 941
36 | O=C(NC1CCCCC1)N1[C@@H]2CC[C@H]1C[C@H](n1cnc(-c3cccc(F)c3F)c1)C2 [Example 410] | 197
37 | O=C(NC1CCCCC1)[C@H]1CC[C@@H](n2cnc(-c3ccccc3)c2)CC1 [Example 9, cis-N-Cyclohexyl-4-(4-phenyl-1H-imidazol-1-yl)cyclohexanecarboxamide] | 121
38 | O=C(NC1CCC(F)(F)CC1)N1CCC(n2cnc(-c3cccc(OC(F)F)c3)c2)CC1 [Example 59] | 707
39 | O=C(NC1CCCC1)N1CCC(n2cnc(-c3cccc(F)c3)c2Cl)CC1 [Example 83] | 671

The next lines start with the values.

Row | activity at 10 µM [%] | Structure (SMILES)
40 | 130 | CC(C)(F)C(=O)N[C@H]1CC[C@@H](n2cnc(-c3ccc(OC(F)(F)F)cc3F)c2C#N)CC1 [Example 347]
41 | 603 | O=C(C1CCOCC1)N1CCC(n2cnc(-c3ccc(C(F)(F)F)cc3)c2Cl)CC1 [Example 262]
42 | 142 | O=C(N[C@H]1CC[C@@H](n2cnc(-c3cccc(C(F)(F)F)c3)c2Cl)CC1)C1CCC1 [Example 195]
43 | 794 | O=C(NC1COC1)[C@H]1CC[C@@H](n2cnc(-c3ccc(C(F)(F)F)cc3)c2Cl)CC1 [Example 361]
44 | 236 | N#Cc1c(-c2ccc(C(F)(F)F)cc2)ncn1C1CCN(C(=O)C2CCC(F)(F)CC2)CC1 [Example 157]
45 | 643 | CC(C)(F)C(=O)N[C@H]1CC[C@@H](n2cnc(-c3cc(F)ccc3F)c2Cl)CC1 [Example 329]
46 | 869 | COc1ccc(-c2cn([C@H]3CC[C@@H](NC(=O)C(C)(C)F)CC3)cn2)cc1 [Example 285]
47 | 224 | CC(C)(F)C(=O)N[C@H]1CC[C@@H](n2cnc(-c3ccc(C(F)(F)F)cc3)c2C#N)CC1 [Example 201, N-(cis-4-{5-cyano-4-[4-(trifluoromethyl)phenyl]-1H-imidazol-1-yl}cyclohexyl)-2-fluoro-2-methylpropanamide]
48 | 990 | COc1ccc(-c2ncn(C3CCN(C(=O)C4CCC(F)(F)CC4)CC3)c2C#N)cc1 [Example 265]
49 | 149 | CC(C)(F)C(=O)N1CCC(n2cnc(-c3ccc(F)cc3)c2C#N)CC1 [Example 266]
50 | 799 | N#Cc1c(-c2ccccc2)ncn1[C@H]1CC[C@@H](NC(=O)C2CCC2)CC1 [Example 198]
51 | 228 | O=C(Nc1ccccc1F)N1CCC(n2cnc(-c3ccc(C(F)(F)F)cc3)c2)CC1 [Example 24]
52 | 501 | CC(C)(F)C(=O)N[C@H]1CC[C@@H](n2cnc(-c3c(F)cccc3F)c2)CC1 [Example 315]
53 | 420 | Cc1c(-c2ccc(F)cc2)ncn1C1CCN(C(=O)NC2CCOCC2)CC1 [Example 259]
54 | 211 | CC(C)(C(=O)N[C@H]1CC[C@@H](n2cnc(-c3ccc(Cl)cc3)c2)CC1)C(F)(F)F [Example 293]
55 | 834 | O=C(NC1CCOC1)[C@H]1CC[C@@H](n2cnc(-c3ccc(F)cc3)c2Cl)CC1 (some centres unmarked) [Example 366]
56 | 210 | CC(C)(F)C(=O)N[C@H]1CC[C@@H](n2cnc(-c3cccc(OC(F)(F)F)c3)c2Cl)CC1 [Example 325]
57 | 644 | N#Cc1c(-c2ccccc2)ncn1C1CCN(C(=O)C2CCC(F)(F)CC2)CC1 [Example 7, 1-{1-[(4,4-Difluorocyclohexyl)carbonyl]piperidin-4-yl}-4-phenyl-1H-imidazole-5-carbonitrile]

same assay, conditions: GH4-C1, 10 μM test compound; ratio of RLU (Max-Min) of test wells to control wells after ACh at EC20; GH4C1 cells expressing human α7 nAChR and aequorin; read-out: α7PAM (%) @10 μM

Row | activity at 10 µM [%] | Structure (SMILES)
58 | 130 | CC(C)(C)NC(=O)[C@H]1CC[C@H](n2cnc(-c3ccccc3)c2Cl)CC1 [Example 234]
59 | 102 | O=C(NC1CCCCC1)[C@H]1CC[C@H](n2cnc(-c3ccccc3)c2Cl)CC1 [Example 233]
60 | 113 | CC(C)(C)NC(=O)[C@H]1CC[C@H](n2cnc(-c3ccccc3)c2)CC1 [Example 232]

same assay, conditions: comparison across Tables 18 to 25

Row | PAM activity for α7 nAChR (in words) | Structure (SMILES)
61 | stronger PAM activity than others | N#Cc1c(-c2ccccc2)ncn1C1CCN(C(=O)NC2CCC(F)(F)CC2)CC1 [Example 99]
62 | stronger PAM activity than others | O=C(NC1CCC(F)(F)CC1)N1CCC(n2cnc(-c3ccc(Cl)s3)c2)CC1 [Example 118]
